We go through 1 compound from ChEMBL document CHEMBL1201862, “PubChem BioAssay data set” (2004).

Some test systems named below: SW-620; SF-295; HOP-92; T47D; MDA-N; TK-10; 786-0; LOX IMVI; SNB-19; OVCAR-8; SR; NCI-H23; HCC 2998; ACHN; A549; RXF 393; PC-3; KM12; SK-MEL-2; Hs-578T.
What all share (assay): inhibition of tumour cell growth, NCI panel, 48 h

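Values below derive from 48-hour exposures of cells grown in 96-well plates, with endpoints linearly interpolated between the two concentrations bracketing the appropriate inhibition level. GI50 marks 50% less growth.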 Active and inactive are the calls of the source. Cut-off read from the data, not from the text of the source: active = GI50 up to about 1.1 µM and inactive = higher.

Turning to `Cc1cc(C(=C2C=CC(=N)C=C2)c2ccc(N)cc2)ccc1N` [FUCHSIN, BASIC], the GI50 is 3.67 µM (inactive) in the experiment on SW-620; 0.564 µM (active) in the experiment on SF-295; 6.81 µM (inactive) in the experiment on HOP-92; 1.01 µM (active) in the experiment on T47D; 4.72 µM (inactive) with MDA-N; 8.97 µM (inactive) with TK-10. Moreover, the GI50 in the experiment with 786-0 is 1.09 µM (active); in the experiment with LOX IMVI, 2.25 µM (inactive); in the experiment with SNB-19, 0.615 µM (active); with OVCAR-8, 1.35 µM (inactive); in the experiment with SR, 13.3 µM (inactive); with NCI-H23 it was 2.98 µM (inactive). In addition, the GI50 was 3.23 µM (inactive) in the experiment on HCC 2998; 8.09 µM (inactive) with ACHN; 3.38 µM (inactive) in the experiment with A549; 7.16 µM (inactive) in the experiment on RXF 393; 3.48 µM (inactive) in the experiment with PC-3; 2.34 µM (inactive) with KM12. The GI50 is 3.18 µM (inactive) with SK-MEL-2 and 0.494 µM (active) in the experiment with Hs-578T.
